Read-outs that look alike come from different tables or passages of the source.
Assays:
[1] = tested on: A549 cells with Kras G12S mutation; test: Cell proliferation inhibition experiment, 3D spheroid, CellTiter-Glo (Test Example 1); format: cell-based, human; conditions: 5 days
Summary of the method: (§1)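 NCI-H358 (800 cells/well) and A549 (400 cells/well) grown overnight as 3D spheroids in 2% FBS medium, then exposed to compound dilution series (3.16-fold, 0.1% DMSO) for 5 days. CellTiter-Glo luminescence read; inhibition relative to DMSO and blank, IC50 by four-parameter fit.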

[2] = tested on: NCI-H358 cells with Kras G12C mutation; test: as above; format: cell-based, human; conditions: 5 days
Summary of the method: as §1

[3] = tested on: phosphorylated ERK in MIA PaCa2 cells with Kras G12C mutation; test: p-ERK HTRF assay for cells (Test Example 2); format: cell-based, human
Summary of the method: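 MIA PaCa2 cells (2.5E4/well, seeded overnight) treated 2 h with compound in a 3.16-fold series at 0.1% DMSO. Cells lysed 30 min; p-ERK read by HTRF after 4 h antibody incubation. Inhibition relative to DMSO and blank; IC50 by four-parameter fit.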

[4] = biological target: KRas G12C (Homo sapiens (Human), UniProt P01116, G12C); test: Nucleotide exchange assay (NEA)-HTRF, SOS1 catalyzed displacement of GDP by GTP (Test Example 4); format: biochemical
Protocol: The effects of compounds on SOS1 catalyzed displacement of GDP by GTP on KRas proteins was examined by homogeneous time-resolved fluorescence (HTRF). 30 μM 6×his labeled KRas G12C recombinant protein and 80 μM fluorochrome DY647 labeled GDP were co-incubated in a labeling buffer (1 mM DTT, 7.5 mM EDTA, 25 mM Tris-HCl, 45 mM NaCl) at 20° C. away from light for 2 hours. Protein quantification was performed after purification on the NAP-5 column to determine the concentration of KRas G12C-GDP.
1000× stock solutions of compounds at a concentration gradient of 3.16 were prepared by using DMSO, and diluted 250 times by a reaction buffer (40 mM N-2-hydroxyethylpiperazine-N-2-ethane sulfonic acid (HEPES), 10 mM MgCl2, 1 mM DTT, 0.002% Triton X-100) into 4× stock solutions of compounds. KRas G12C-GDP/Tb working solution (40 nM KRas G12C-GDP, 1×anti-his Tb) and SOS1/GTP working solution (0.2 μM SOS1, 200 μM GTP) were prepared by using the reaction buffer.
5 μl of 4×stock solution of a compound and 10 μl of KRas G12C-GDP/T working solution were added to each well of 96-well plate with white unclear bottom, and 5 μl of reaction buffer was added to the well of control group in stead of the 4×stock solution of a compound. After incubation at 20° C. away from light for 15 minutes, 5 μl of SOS1/GTP working solution was added and incubated at 20° C. away from light for 2 hours, and then a value of fluorescence intensity was read (excitation wavelength: 320 nm, and emission wavelengths: 615 nm and 665 nm). Besides, group TO was established with 10 μl of the reaction buffer and 10 μl of the KRas G12C-GDP/Tb working solution, and the value of fluorescence intensity was directly read. A relative light unit (RLU) was calculated by the following equation: RLU=(665 nm signal/615 nm signal)×10^4; and the inhibition rate (IR) of the compound was calculated by the following equation: IR (%)=(RLUcompound−RLUcontrol)/(RLUT0−RLUcontrol)×100%. The value of IC50 was calculated by fitting a gradiently diluted concentration of the compound and the corresponding cell proliferation inhibition rate using a four-parameter method.

[5] = tested on: MIA PaCa-2 cells with Kras G12C mutation; test: Cell proliferation inhibition experiment, 3D spheroid, CellTiter-Glo (Test Example 3); format: cell-based, human; conditions: 5 days, read-out: MIA-PaCa2 IC50
Summary of the method: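 MIA PaCa-2 spheroids (200 cells/well) were formed overnight, then exposed for 5 days to compounds in 3.16-fold dilutions at 0.1% DMSO. Viability was read by CellTiter-Glo luminescence, and inhibition was normalised to DMSO control and medium blank. IC50 came from a four-parameter fit.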

[6] = MIA PaCa2 cells, 2 hours with compound, read-out: p-ERK IC50
[7] = Homo sapiens, MIA PaCa-2, 2 h, MIA PaCa2 cells, 2 hours with compound, read-out: p-ERK IC50
[8] = Homo sapiens, MIA PaCa-2, 120 h
[9] = Homo sapiens, MIA PaCa-2, 2 h, read-out: p-ERK IC50, MIA PaCa2 cells, 2 hours with compound

Chain of KRas G12C (P01116-2 other isoform, or with tags, fused parts or gaps G12C): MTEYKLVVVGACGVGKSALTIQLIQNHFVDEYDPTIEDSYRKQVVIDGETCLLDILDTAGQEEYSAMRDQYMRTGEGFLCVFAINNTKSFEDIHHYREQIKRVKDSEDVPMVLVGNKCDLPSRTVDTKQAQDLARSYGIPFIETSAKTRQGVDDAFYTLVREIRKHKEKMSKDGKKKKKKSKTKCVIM

SMILES: C=CC(=O)N1C[C@@H]2C(=O)N(C)c3c(c4cc(F)c(-c5c(O)cccc5F)nc4n(-c4c(C#N)cccc4C(C)C)c3=O)N2C[C@H]1C (atropisomer, axis not shown) [Compound Z38-1, 2-((2R,4aR)-3-acryloyl-11-fluoro-10-(2-fluoro-6-hydroxyphenyl)-2,6-dimethyl-5,7-dioxo-2,3,4,4a,5,6-hexahydro-1H-pyrazino[1′,2′:4,5]pyrazino[2,3-c][1,8]naphthyridin-8(7H)-yl)-3-isopropylbenzonitrile]
- IC50 [1]: > 30 µM
- IC50 [2]: 7 nM
- IC50 [3, 6]: 212 nM
- IC50 [4]: 53 nM
- IC50 [5]: 27 nM

SMILES: C=CC(=O)N1CCN2c3c(c(=O)n(-c4c(C)ccnc4C(C)C)c4nc(-c5c(O)cccc5F)c(F)cc34)OC[C@H]2C1 (single isomer, unassigned) [Compound Z1-1]
- IC50 [1]: 10.7 µM
- IC50 [2]: 31 nM
- IC50 [3, 7]: 512 nM
- IC50 [4]: 152 nM
- IC50 [5, 8]: 95 nM

SMILES: C=CC(=O)N1C[C@@H]2C(=O)N(C)c3c(c4cc(F)c(-c5c(O)cccc5F)nc4n(-c4c(C)ccnc4C(C)C)c3=O)N2C[C@H]1C (single isomer, unassigned) [Compound Z10-1]
- IC50 [1]: > 10 µM
- IC50 [2]: 70 nM
- IC50 [3, 6]: 460 nM
- IC50 [4]: 708 nM

SMILES: C=CC(=O)N1CCN2c3c(c(=O)n(-c4c(C)ncnc4C(C)C)c4nc(-c5c(O)cccc5F)c(F)cc34)N(C)C(=O)[C@H]2C1 (single isomer, unassigned) [Compound Z21-1]
- IC50 [1]: > 30 µM
- IC50 [2]: 27 nM
- IC50 [3, 6]: 428 nM
- IC50 [4]: 172 nM
- IC50 [5]: 46 nM

SMILES: C=CC(=O)N1CCN2c3c(c(=O)n(-c4c(C)ccnc4C(C)C)c4nc(-c5c(O)cccc5F)c(Cl)cc34)NC(=O)[C@H]2C1 (single isomer, unassigned) [Compound Z24-1]
- IC50 [1]: > 30 µM
- IC50 [2]: 28 nM
- IC50 [3, 6]: 536 nM
- IC50 [4]: 291 nM

SMILES: C=CC(=O)N1CCN2c3c(c(=O)n(-c4c(C)ccnc4C(C)C)c4nc(-c5c(O)cccc5F)c(Cl)cc34)NC(=O)[C@H]2C1 (single isomer, unassigned) [Compound Z24-2]
- IC50 [1]: 11.3 µM
- IC50 [2]: 3 nM
- IC50 [3, 6]: 61 nM
- IC50 [4]: 38 nM
- IC50 [5, 8]: 4 nM

SMILES: C=CC(=O)N1C[C@@H]2C(=O)N(C)c3c(c4cc(Cl)c(-c5c(O)cccc5F)nc4n(-c4c(C)ccnc4C(C)C)c3=O)N2C[C@H]1C (single isomer, unassigned) [Compound Z27-1]
- IC50 ([1]; Homo sapiens, A549, 120 h): 12.7 µM
- IC50 [2]: 12 nM
- IC50 [3, 6]: 157 nM
- IC50 [4]: 198 nM

SMILES: C=CC(=O)N1C[C@@H]2C(=O)N(C)c3c(c4cc(F)c(-c5c(O)cccc5F)nc4n(-c4c(C)cnn4C(C)C)c3=O)N2C[C@H]1C (single isomer, unassigned) [Compound Z33-1]
- IC50 [1]: > 30 µM
- IC50 [2]: 74 nM
- IC50 [4]: 515 nM
- IC50 [5, 8]: 92 nM

SMILES: C=CC(=O)N1C[C@@H]2C(=O)N(C)c3c(c4cc(F)c(-c5c(O)cccc5F)nc4n(-c4c(C)cnn4C(C)C)c3=O)N2C[C@H]1C (single isomer, unassigned) [Compound Z33-2]
- IC50 ([1]; Homo sapiens, A549, 120 h): > 30 µM
- IC50 [2]: 34 nM
- IC50 [3, 7]: 238 nM
- IC50 [4]: 162 nM
- IC50 [5]: 48 nM

SMILES: C=CC(=O)N1C[C@@H]2C(=O)N(C)c3c(c4cc(Cl)c(-c5c(O)cccc5F)c(F)c4n(-c4c(C(C)C)ncnc4C(C)C)c3=O)N2C[C@H]1C (single isomer, unassigned) [Compound Z50-1]
- IC50 [1]: > 30 µM
- IC50 [2]: 0.3 nM
- IC50 [3, 6]: 6 nM
- IC50 [4]: 8 nM
- IC50 [5, 8]: 1 nM

SMILES: C=CC(=O)N1C[C@@H]2C(=O)N(C)c3c(c4cc(Cl)c(-c5c(O)cccc5F)c(F)c4n(-c4c(C(C)C)ncnc4C(C)C)c3=O)N2C[C@H]1C (single isomer, unassigned) [Compound Z50-2]
- IC50 [1]: 3.87 µM
- IC50 [2]: 320 nM
- IC50 [3, 6]: 316 nM
- IC50 [4]: 1450 nM

SMILES: C=CC(=O)N1C[C@@H]2C(=O)N(C)c3c(c4cc(F)c(-c5c(O)cccc5F)nc4n(-c4c(C)ccnc4C(C)C)c3=O)N2C[C@H]1C [Compound Z10, (2R,4aR)-3-acryloyl-11-fluoro-10-(2-fluoro-6-hydroxyphenyl)-8-(2-isopropyl-4-methylpyridin-3-yl)-2,6-dimethyl-2,3,4,4a,6-hexahydro-1H-pyrazino[1′,2′:4,5]pyrazino[2,3-c][1,8,8]naphthyridin-5-dione]
- IC50 ([1]; Homo sapiens, A549, 120 h): 12.1 µM
- IC50 ([2]; Homo sapiens, NCI-H358, 120 h): 8 nM
- IC50 [3, 7]: 75 nM
- IC50 [4]: 67 nM

SMILES: C=CC(=O)N1CCN2c3c(c(=O)n(-c4c(C)ncnc4C(C)C)c4nc(-c5c(O)cccc5F)c(F)cc34)N(C)C(=O)[C@H]2C1 [Compound Z21, (4aR)-3-acryloyl-11-fluoro-10-(2-fluoro-6-hydroxyphenyl)-8-(4-isopropyl-6-methylpyrimidin-5-yl)-6-methyl-2,3,4,4a,6,8-hexahydro-1H-pyrazino[1′,2′:4,5]pyrazino[2,3-c][1,8]naphthyridin-5,7-dione]
- IC50 ([1]; Homo sapiens, A549, 120 h): > 30 µM
- IC50 ([2]; Homo sapiens, NCI-H358, 120 h): 23 nM
- IC50 [3, 7]: 271 nM
- IC50 [4]: 388 nM
- IC50 [5, 8]: 47 nM

SMILES: C=CC(=O)N1CCN2c3c(c(=O)n(-c4c(C)ccnc4C(C)C)c4nc(-c5c(O)cccc5F)c(Cl)cc34)NC(=O)[C@H]2C1 [Compound Z24, (4aR)-3-acryloyl-11-chloro-10-(2-fluoro-6-hydroxyphenyl)-8-(2-isopropyl-4-methylpyridin-3-yl)-2,3,4,4a,6,8-hexahydro-1H-pyrazino[1′,2′:4,5]pyrazino[2,3-c][1,8]naphthyridin-5,7-dione]
- IC50 ([1]; Homo sapiens, A549, 120 h): 28.1 µM
- IC50 ([2]; Homo sapiens, NCI-H358, 120 h): 3 nM
- IC50 [3, 7]: 113 nM
- IC50 [4]: 58 nM
- IC50 [5, 8]: 9 nM

SMILES: C=CC(=O)N1CCN2c3c(c(=O)n(-c4c(C)ccnc4C(C)C)c4nc(-c5c(O)cccc5F)c(Cl)cc34)N(C)C(=O)[C@H]2C1 [Compound Z25, (4aR)-3-acryloyl-11-chloro-10-(2-fluoro-6-hydroxyphenyl)-8-(2-isopropyl-4-methylpyridin-3-yl)-6-methyl-2,3,4,4a,6,8-hexahydro-1H-pyrazino[1′,2′:4,5]pyrazino[2,3-c][1,8]naphthyridin-5,7-dione]
- IC50 ([1]; Homo sapiens, A549, 120 h): 28.3 µM
- IC50 ([2]; Homo sapiens, NCI-H358, 120 h): 4 nM
- IC50 [3, 9]: 51 nM
- IC50 [4]: 60 nM
- IC50 ([5]; Homo sapiens, 120 h): 8 nM

SMILES: [2H]C([2H])([2H])N1C(=O)[C@H]2CN(C(=O)C=C)CCN2c2c1c(=O)n(-c1c(C)ccnc1C(C)C)c1nc(-c3c(O)cccc3F)c(Cl)cc21 [Compound Z26, (4aR)-3-acryloyl-11-chloro-10-(2-fluoro-6-hydroxyphenyl)-8-(2-isopropyl-4-methylpyridin-3-yl)-6-(methyl-d3)-2,3,4,4a,6,8-hexahydro-1H-pyrazino[1′,2′:4,5]pyrazino[2,3-c][1,8]naphthyridin-5,7-dione]
- IC50 [1]: 12.9 µM
- IC50 [2]: 2 nM
- IC50 [3, 9]: 39 nM
- IC50 [4]: 34 nM
- IC50 ([5]; Homo sapiens, 120 h): 5 nM

SMILES: C=CC(=O)N1C[C@@H]2C(=O)N(C)c3c(c4cc(Cl)c(-c5c(O)cccc5F)nc4n(-c4c(C)ccnc4C(C)C)c3=O)N2C[C@H]1C [Compound Z27, (2R,4aR)-3-acryloyl-11-chloro-10-(2-fluoro-6-hydroxyphenyl)-8-(2-isopropyl-4-methylpyridin-3-yl)-2,6-dimethyl-2,3,4,4a,6,8-hexahydro-1H-pyrazino[1′,2′:4,5]pyrazino[2,3-c][1,8]naphthyridin-5,7-dione]
- IC50 ([1]; Homo sapiens, A549, 120 h): 10.1 µM
- IC50 ([2]; Homo sapiens, NCI-H358, 120 h): 2 nM
- IC50 [3, 7]: 29 nM
- IC50 [4]: 27 nM
- IC50 [5, 8]: 4 nM

From patent publication US12054497B2, “Substituted heterocyclic fused cyclic compound, preparation method therefor and pharmaceutical use thereof” (GENFLEET THERAPEUTICS (SHANGHAI) INC., priority 2019, dated 2024)
